Results from US20250099420A1, “SMALL MOLECULE MODULATORS OF GPR139 COMPLEX” (University of Florida Research Foundation, Incorporated, priority 2022, published 2025).
Read-outs that look alike come from different tables or passages of the source.

Tests used:
parental HEK cells = test: HEK parental Agonist Counterscreen Assay (non-transfected cells); type: cell-based; conditions: for Averaged Max % Response (±St. Dev.): activity relative to known control
From the text: The high control for the agonist counterscreen was Forskolin not acetylcholine.

GPR139 = biological target: T1, GPR139 (Homo sapiens, UniProt Q6DWJ6); test: GPR139 Agonist titration / agonist counterscreen assay (calcium detection, HEK-GPR139 cells); type: cell-based; design: expressed in transfected cells; host or cells: HEK Aequorin cells, Maxcyte transient transfection; conditions: GPR139 Agonist Activity; for Averaged Max % Response (±St. Dev.): activity relative to known control; for EC50: read-out: EC50
T1 sequence (Q6DWJ6 1-353): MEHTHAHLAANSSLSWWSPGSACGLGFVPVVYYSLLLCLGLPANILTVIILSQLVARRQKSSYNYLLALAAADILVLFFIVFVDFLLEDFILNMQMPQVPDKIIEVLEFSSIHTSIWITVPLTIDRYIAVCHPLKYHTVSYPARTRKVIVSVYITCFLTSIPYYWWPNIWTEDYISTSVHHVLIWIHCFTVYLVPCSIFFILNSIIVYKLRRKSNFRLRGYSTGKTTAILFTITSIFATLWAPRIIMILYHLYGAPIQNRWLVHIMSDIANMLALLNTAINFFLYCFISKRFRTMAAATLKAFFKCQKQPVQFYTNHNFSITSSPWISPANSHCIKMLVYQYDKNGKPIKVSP
Description: GPR activity was assessed using a calcium detection assay. […] Negative control samples were treated with DMSO. […] Intracellular calcium was measured using Calcium 5.

[1] = Homo sapiens, HEK293, HEK Agonist Activity section of Table 4 (parental HEK counterscreen)
[2] = Homo sapiens, HEK293, HEK Agonist Activity, parental non-transfected HEK cells
[3] = values printed in E-notation without unit
[4] = HEK Agonist Activity section of Table 4 (parental HEK counterscreen)
[5] = HEK Agonist Activity, parental non-transfected HEK cells

SMILES	Lipophilic Efficiency (logD) (parental HEK cells; HEK Agonist Activity section)	Lipophilic Efficiency (logP) (parental HEK cells; HEK Agonist Activity section)	Averaged Max % Response (±St. Dev.) (parental HEK cells; HEK Agonist Activity section)	EC50 (parental HEK cells; [1])	Averaged Max % Response (±St. Dev.) (GPR139)	Lipophilic Efficiency (logD) (GPR139; based on logD)	Lipophilic Efficiency (logP) (GPR139; based on logP)	Hill Slope (GPR139; fitted dose-response curve)	Efficiency Ligand (GPR139; ligand efficiency)	Efficiency Ligand (GPR139)	Hill Slope (GPR139)	Lipophilic Efficiency (logD) (GPR139)	Lipophilic Efficiency (logP) (GPR139)	EC50 (GPR139; HEK-GPR139 cells)	EC50 (GPR139; [3])	further results
CCCCN(C)C(=O)CCC(=O)NNC1Cc2ccccc2C2=CC(C)=CC21 (stereo not drawn) [SR-01000131962]	2.37	2.37	−5.39 ± 5.10%	> 14.1 µM	113.53 ± 12.66%	4.28	4.28	1.14	0.34	–	–	–	–	–	–	–
O=C(Cn1nc(Cc2ccncc2)c2ccccc2c1=O)NC(O)CCc1ccccc1 (stereo not drawn) [SR-01000134029]	–	–	–	–	100.82 ± 13.50%	4.27	4.27	–	0.34	–	–	–	–	–	–	Lipophilic Efficiency (logD) (parental HEK cells; HEK Agonist Activity): 1.41; Lipophilic Efficiency (logP) (parental HEK cells; HEK Agonist Activity): 1.41; Averaged Max % Response (±St. Dev.) (parental HEK cells; HEK Agonist Activity): 19.31 ± 4.61%; EC50 (parental HEK cells; [2]): > 14.1 µM
CC(CCc1ccccc1)NC(=O)Cn1ncc2c1-c1ccccc1OC2 (stereo not drawn) [SR-01000134913]	1.52	1.52	−5.82 ± 11.13%	> 14.1 µM	96.78 ± 14.90%	–	–	–	–	0.31	0.51	2.73	2.73	0.863 µM	–	–
O=C(Cc1ccccc1)CC1C=CC2=C1c1ccccc1CC2 (stereo not drawn) [SR-01000134941]	2.40	2.40	10.65 ± 6.79%	> 14.1 µM	109.36 ± 34.06%	4.30	4.30	0.39	0.39	–	–	–	–	–	–	–
C=C(CC1N=CC2=C1c1ccccc1CC2)NCc1ccc(C)cc1 (stereo not drawn) [SR-01000134947]	2.07	2.07	1.42 ± 10.91%	> 14.1 µM	111.20 ± 10.15%	4.02	4.02	0.36	0.38	–	–	–	–	–	–	–
CCCc1ccccc1C1=CCC(NC(=O)Cn2ncc3c2-c2ccccc2CC3)=C1 [SR-01000135037]	1.70	1.69	−6.83 ± 12.52%	> 14.1 µM	95.23 ± 13.49%	3.95	3.94	1.23	0.32	–	–	–	–	–	–	–
Cc1cccc(NC(=O)Cn2ncc3c2-c2ccccc2OC3)n1 [SR-01000135038]	2.87	2.87	13.01 ± 4.86%	> 14.1 µM	105.92 ± 4.10%	5.32	5.31	0.77	0.43	–	–	–	–	–	0.0505 µM	–
O=C(Cn1nnc2c1-c1ccccc1OC2)Nc1cccc(Cl)c1 [SR-01000135042]	1.77	1.77	16.89 ± 7.08%	> 14.1 µM	104.44 ± 8.42%	–	–	–	–	0.37	0.33	3.32	3.32	0.401 µM	–	–
O=C(Cn1ncc2c1-c1ccccc1OC2)Nc1ccccn1 [SR-01000135048]	3.00	3.00	12.06 ± 16.35%	> 14.1 µM	109.25 ± 4.64%	4.72	4.72	1.29	0.40	–	–	–	–	–	0.266 µM	–
Cc1ccc(NC(=O)Cn2ncc3c2-c2ccccc2OC3)cc1F [SR-01000135068]	1.72	1.72	−6.35 ± 1.52%	> 14.1 µM	114.56 ± 16.65%	4.08	4.08	0.14	0.40	–	–	–	–	–	0.0615 µM	–
COc1ccc(NC(=O)Cn2ncc3c2-c2ccccc2OC3)cc1Cl [SR-01000135070]	1.93	1.93	7.87 ± 13.27%	–	89.37 ± 8.48%	4.16	4.16	0.51	0.38	–	–	–	–	–	0.0829 µM	EC50 (parental HEK cells; [4]): > 14.1 µM
Cc1ccc2c(c1)-c1c(cnn1CC(=O)Nc1ccc(F)cc1)CO2 [SR-01000136273]	1.72	1.72	−14.31 ± 5.07%	–	78.44 ± 11.98%	–	–	–	–	0.31	0.56	2.47	2.47	2.5 µM	–	EC50 (parental HEK cells; [4]): > 14.1 µM
Cc1ccc(CCNC(=O)Cn2cc3c(n2)CCCC3)cc1 [SR-01000137723]	–	–	–	–	136.99 ± 21.58%	5.09	5.09	0.44	0.52	–	–	–	–	–	0.0057 µM	Lipophilic Efficiency (logD) (parental HEK cells; HEK Agonist Activity): 1.70; Lipophilic Efficiency (logP) (parental HEK cells; HEK Agonist Activity): 1.70; Averaged Max % Response (±St. Dev.) (parental HEK cells; HEK Agonist Activity): −4.03 ± 1.74%; EC50 (parental HEK cells; [2]): > 14.1 µM
CC(CCc1ccccc1)NC(=O)Cn1cc2c(n1)CCCC2 (stereo not drawn) [SR-01000137757]	–	–	–	–	160.07 ± 33.89%	4.32	4.32	0.09	0.48	–	–	–	–	–	0.0153 µM	Lipophilic Efficiency (logD) (parental HEK cells; HEK Agonist Activity): 1.35; Lipophilic Efficiency (logP) (parental HEK cells; HEK Agonist Activity): 1.35; Averaged Max % Response (±St. Dev.) (parental HEK cells; HEK Agonist Activity): −12.95 ± 5.94%; EC50 (parental HEK cells; [2]): > 14.1 µM
Cc1c2cnn(CC(=O)NC(C)c3ccccc3)c(=O)c2c(C)n1Cc1ccc(F)cc1 (stereo not drawn) [SR-01000138428]	–	–	–	–	81.78 ± 16.61%	4.85	4.85	–	0.38	–	–	–	–	–	–	Lipophilic Efficiency (logD) (parental HEK cells; HEK Agonist Activity): 1.03; Lipophilic Efficiency (logP) (parental HEK cells; HEK Agonist Activity): 1.03; Averaged Max % Response (±St. Dev.) (parental HEK cells; HEK Agonist Activity): −0.31 ± 7.41%; EC50 (parental HEK cells; [5]): > 14.1 µM
COc1cc(-c2noc(CCC(=O)Nc3cccc(C)c3C)n2)cc(OC)c1OC [SR-01000139458]	0.80	0.80	16.10 ± 9.95%	–	116.90 ± 31.97%	–	–	–	–	0.29	1.12	2.20	2.20	0.556 µM	–	EC50 (parental HEK cells; [4]): > 14.1 µM
CNc1ccc(CCNC(=O)Cn2c3ccccc3c3nc(=O)cc(C)n32)cc1 [SR-01000139601]	2.04	2.04	−14.37 ± 9.70%	> 14.1 µM	109.30 ± 18.80%	–	–	–	–	0.31	0.85	3.57	3.57	0.416 µM	–	–
Cc1nn(CC(=O)NC2CCCc3ccccc32)c(=O)c2c1sc1ccccc12 (stereo not drawn) [SR-01000139982]	1.18	1.18	9.26 ± 7.81%	> 14.1 µM	89.89 ± 26.17%	–	–	–	–	0.29	0.79	2.38	2.38	0.89 µM	–	–
O=C(Cn1ncn2cccc2c1=O)NCCc1ccc(Cl)cc1 [SR-01000140172]	3.41	3.41	2.22 ± 10.07%	–	113.63 ± 31.77%	–	–	–	–	0.40	0.89	5.11	5.11	0.278 µM	–	EC50 (parental HEK cells; [4]): > 14.1 µM
CC(C(=O)NCCc1ccc(Cl)cc1)n1ncn2cccc2c1=O (stereo not drawn) [SR-01000140260]	–	–	–	–	114.94 ± 7.97%	6.86	6.86	0.54	0.52	–	–	–	–	–	0.0013 µM	Lipophilic Efficiency (logD) (parental HEK cells; HEK Agonist Activity): 2.84; Lipophilic Efficiency (logP) (parental HEK cells; HEK Agonist Activity): 2.84; Averaged Max % Response (±St. Dev.) (parental HEK cells; HEK Agonist Activity): 19.72 ± 7.61%; EC50 (parental HEK cells; [5]): > 14.1 µM
